{
  "source": "patent US9801373B2",
  "about": "“Compounds for alleviating phosphate starvation symptoms in plants” (Commissariat a l'Energie Atomique et aux Energies …, priority 2012, dated 2017)",
  "key": {"PHT1 genes (PHT1;4)": {"test_system": "PHT1 genes (PHT1;4)", "assay": "qPCR of PHT1 transcript level on root mRNA", "type": "in vivo, Arabidopsis thaliana", "method": "Plant RNA was extracted with the RNeasy kit (QIAGEN, France). For transcriptome data, RNA were analysed by the CATMA technology (Complete Arabidopsis Transcriptome Microarray). For qPCR, poly(dT) cDNA were prepared from 500 ng total RNA with Superscript III reverse transcriptase (Invitrogen, France) and analysed on a LightCycler 480 apparatus (Roche Diagnostics, France) with the SYBR Green I Master kit (Roche Diagnostics, France) according to the manufacturer's instructions. Targets were quantified with specific primer pairs designed with Primer3 website (http://frodo.wi.mit.edu/primer3/) (see Table II below). Biological triplicates were performed for all experiments. Expression levels were normalized using At2g16600, At3g04120, At1g35160 and At1g32050 genes."}, "Pi uptake capacity": {"test_system": "Pi uptake capacity", "assay": "Phosphate uptake experiments (33PO4)", "type": "in vivo, Arabidopsis thaliana", "settings": "−Pi+PTN1 vs −Pi, 7-day-old plantlets, FIG. 3 (B)", "method": "Phosphate uptake experiments were performed as previously described by Narang et al. (2000). 24 seedlings per conditions were incubated separately in a phosphate incubation solution containing ^33PO4 (5 mM MES, 0.1 mM CaCl2, 20 μM KH2PO4, 0.15 μCi/ml ^33PO4) for 2 h. After incubation in the uptake solution, plantlets were transferred to a chilled desorption medium (5 mM MES, 0.1 mM CaCl2, 1 mM KH2PO4) for 2 h at 4° C. Then, the seedlings were dried in scintillation vials at 60° C. overnight. An amount of 2 ml of scintillation cocktail (InstaGel, PerkinElmer, Wellesley, Mass., USA) was added and the radioactivity was measured with a scintillation analyzer (TRICARB, Packard instrument company). The amount of phosphate absorbed during the experiment was calculated and normalized per cm of root."}, "[1]": {"assay": "Total phosphorus content by ICP", "type": "in vivo, Arabidopsis thaliana", "settings": "FIG. 3 (C)", "method": "(§1) For the quantification of ions content, 50 mg of dry weight of each sample were mineralized in 14% HNO3 using a MarsX microwave system (CEM) for the determination of macro- and microelements by inductively coupled plasma optical emission spectrometry (ICP OES Vista MPX, Varian). Biological triplicates were performed for all experiments."}, "phosphatase activity": {"test_system": "phosphatase activity", "assay": "Phosphatase activity on root samples", "type": "in vivo, Arabidopsis thaliana", "settings": "7-days-old plants, −Pi+PTN1 40 μM, FIG. 4", "method": "Soluble proteins were extracted with 50 mM TRIS pH 7.4 and 1 mM DTE (1,4-Dithioerythritol, Sigma, 6892-68-8). The protein concentration was determined by the Bradford methods, using albumin from bovine serum (BSA, Sigma, 9048-46-8) as a standard. The phosphatase activity in solution was determined as previously described by Kolari and Sarjala, (1995), by measuring the release of nitrophenol from 0.6 mM p-nitrophenylphosphate in 50 mM sodium acetate pH 5. Reactions were incubated at 30° C. for […] and were stopped with 10% of Na2CO3, after which the absorbance at 405 nm was measured."}, "[2]": {"test_system": "phospholipids / glycolipids", "assay": "Lipid composition of aerial part", "type": "in vivo, Arabidopsis thaliana", "method": "(§2) Lipids and anthocyanins were analyzed as previously described by Jouhet (2003) and Ticconi (2001)."}, "root cortical cells": {"test_system": "root cortical cells", "assay": "Cortical cell size of root", "type": "in vivo, Arabidopsis thaliana", "settings": "−Pi seedlings, FIG. 7 (C)"}, "[3]": {"test_system": "lpr1, lpr2 and lpi mutants", "assay": "Primary root growth of mutants with reduced root sensitivity to Pi starvation", "type": "in vivo, Arabidopsis thaliana", "settings": "7-days-old plants, PTN1 40 μM, FIG. 8", "text": "(§3) A “chemical genetics” approach has been carried out to isolate compounds that inhibit the phosphate (Pi) response in Arabidopsis thaliana. Compounds were screened for their ability to inhibit the expression of a phosphate starvation marker, namely the high affinity Pi transporter PHT1,4 gene. For the screening, the A. thaliana pht1;4-1 line (ecotype Wassilewskija) was chosen (Misson et al., 2004). It contains a T-DNA construct inserted into Pht1;4 gene creating a transcriptional fusion with a GUS reporter gene. For phenotypic analyses, A. thaliana Columbia and various lines derived from this ecotype were used. They are either transgenic lines expressing reporter gene as cycB1::GUS (Colón Carmona et al., 1999), MGD3::LUC, PHT1;4::LUC, At1g73010::LUC or various mutants affecting root response to low Pi such as: pdr2 (Ticconi et al., 2004), lpr1, lpr2 (Svistoonoff et al., 2007), lpi1, lpi2 and lpi3 (Sanchez-Calderon et al., 2006).\n(§4) In the Pi deficient medium, NaCl (0.5 mM) was used to replace the equivalent amount of sodium provided by NaH2PO4. For controls of the effects of the compounds, 1% of DMSO (Dimethyl sulfoxid, SIGMA, 472301), solvent for the tested compounds, was added. […] Root architecture and aerial part area were quantified using program ImageJ."}, "pdr2 and phr1 mutants": {"test_system": "pdr2 and phr1 mutants", "assay": "Primary root growth of pdr2 and phr1 mutants", "type": "in vivo, Arabidopsis thaliana", "settings": "40 μM, 9 days after germination, FIG. 7 (E)", "text": "as §3, §4"}, "[4]": {"assay": "Optical density curves of PTN1 with FeCl2", "type": "physicochemical", "settings": "PTN1 40 μM + FeCl2 10 μM, FIG. 9 (A)"}, "Fe content assay by ICP": {"assay": "Fe content assay by ICP", "type": "in vivo, Arabidopsis thaliana", "settings": "−Pi+PTN1 40 μM, FIG. 9 (B)", "method": "as §1"}, "Col-0 plants": {"test_system": "Col-0 plants", "assay": "Shoot (rosette) area after 28 days", "type": "in vivo, Arabidopsis thaliana", "settings": "four weeks on −Pi medium, FIG. 10 (A), (B)", "method": "(§5) In the Pi deficient medium, NaCl (0.5 mM) was used to replace the equivalent amount of sodium provided by NaH2PO4. For controls of the effects of the compounds, 1% of DMSO (Dimethyl sulfoxid, SIGMA, 472301), solvent for the tested compounds, was added. After 2 days at 4° C., the plates were placed in a vertical position and plants were grown in a culture chamber under a 16 h light/8 h dark regime (24/21° C., 150 μE m^−2s^−1). For 4 weeks culture, large plates (24×24 cm) were placed in a horizontal position. Root architecture and aerial part area were quantified using program ImageJ."}, "anthocyanin accumulation": {"test_system": "anthocyanin accumulation", "assay": "Anthocyanins content", "type": "in vivo, Arabidopsis thaliana", "settings": "FIG. 10 (C)", "method": "as §2"}, "starch accumulation": {"test_system": "starch accumulation", "assay": "Starch staining with lugol", "type": "in vivo, Arabidopsis thaliana", "settings": "FIG. 10 (D)", "method": "Starch staining was performed according to Zakhleniuk et al. (2001). Aerial part of plants was placed 6 h in EtOH 90% before to be iodine stained for 30 min in lugol (lugol solution; Sigma, France) and washed several times in water."}, "lpr1 mutant": {"test_system": "lpr1 mutant", "assay": "Shoot growth of lpr1 mutant", "type": "in vivo, Arabidopsis thaliana", "settings": "−Pi, FIG. 11", "method": "as §5"}, "[5]": {"settings": "−Pi medium containing PTN1, FIG. 5 (B)"}},
  "note": "Entries after “also recorded” stand apart in the source; their conditions may differ.",
  "data": [
    {"smiles": "O=c1c(Sc2ccc(Cl)cc2)c(Sc2ccc(Cl)cc2)c1=O", "note": "[PTN1]", "values": [
      {"measurement": "reduction of the impact of Pi starvation on the level of induction of PHT1 transcripts", "setting": "PHT1 genes (PHT1;4); 40 μM, roots, 7-day-old plantlets, FIG. 3 (A)", "result": "at least 50%"},
      {"measurement": "efficiency on PHT1;4 relative to PTN2", "setting": "PHT1 genes (PHT1;4); FIG. 2 (B)", "result": "twice more efficient than PTN2"},
      {"measurement": "effect on PHT1;4 transcript level", "setting": "PHT1 genes (PHT1;4); qPCR on root mRNA, FIG. 2 (B)", "result": "dose dependant manner"},
      {"measurement": "reduction of Pi uptake capacity", "setting": "Pi uptake capacity", "result": 25, "unit": "%"},
      {"measurement": "phosphorous amount vs −Pi control, leaves", "setting": "[1]", "result": "+40%"},
      {"measurement": "phosphorous amount vs −Pi control, shoot", "setting": "[1]", "result": "+90%"},
      {"measurement": "phosphatase activity", "setting": "phosphatase activity", "result": "not altered; also recorded: did not impact the phosphatase activity"},
      {"measurement": "reduction of DGDG content", "setting": "[2]; Pi-starved plants, aerial part, 10-day-old, FIG. 5 (C)", "result": 27, "unit": "%"},
      {"measurement": "glycolipids share in ratio of phospholipids onto glycolipids", "setting": "[2]; [5]", "result": 75, "unit": "%"},
      {"measurement": "phospholipids share in ratio of phospholipids onto glycolipids", "setting": "[2]; [5]", "result": 25, "unit": "%"},
      {"measurement": "PC and PE content", "setting": "[2]; −Pi seedlings, FIG. 5 (C)", "result": "partially reverted the effect of −Pi"},
      {"measurement": "root cortical cell elongation", "setting": "root cortical cells", "result": "restored root cell elongation of −Pi seedlings to an extant closed to the untreated control grown on a +Pi medium"},
      {"measurement": "primary root growth of lpr1 or lpi mutants", "setting": "[3]", "result": "no additive effect; also recorded: did not impact the primary root growth"},
      {"measurement": "root growth of pdr2 mutant", "setting": "pdr2 and phr1 mutants", "result": "substantially reverted the root growth defect"},
      {"measurement": "root growth restriction of phr1 mutant imposed by −Pi", "setting": "pdr2 and phr1 mutants", "result": "partially alleviated"},
      {"measurement": "absorption spectrum of solution containing PTN1 and Fe2+", "setting": "[4]", "result": "identical to the PTN1 control without FeCl2"},
      {"measurement": "Fe content in plants", "setting": "Fe content assay by ICP", "result": "did not reduce the Fe content"},
      {"measurement": "rosette area (leaf growth) vs −Pi", "setting": "Col-0 plants", "result": "+50%"},
      {"measurement": "anthocyanin accumulated, less than control grown on −Pi", "setting": "anthocyanin accumulation", "result": "around 60%"},
      {"measurement": "starch accumulation", "setting": "starch accumulation", "result": "severely attenuated"},
      {"measurement": "anthocyanins accumulation in leaves of lpr1", "setting": "lpr1 mutant", "result": "substantially suppressed this accumulation"}
    ]}
  ]
}
